Experimental findings from ChEMBL document CHEMBL1151295, “11-Methoxy-macusine A. A new quaternary alkaloid from Strychnos angolensis” (1983) are described below.

The assay is described as follows: Muscle relaxant activity in rat diaphragm assessed as inhibition of electrically-stimulated contraction. It counts as functional.

Regarding `C/C=C1/C[N+]2(C)[C@H]3C[C@@H]1[C@@](CO)(C(=O)OC)[C@@H]2Cc1c3[nH]c2cc(OC)ccc12` [11-METHOXY MACUSINE A], the Activity came out at 0.16 mg/kg.
